Assay results: patent US20140106387A1, “METHOD FOR CONTROLLING NAD(P)/NAD(P)H RATIO BY OXIDOREDUCTASE” (MD BIOALPHA CO., LTD., priority 2006, published 2014)

Experiments:
HepG2 cells = assay: mitochondrial membrane potential (TMRE fluorescence) in HepG2 cells; format: cell-based, human; details: NQO1-proficient HepG2 cells
Description: For determination of the inner mitochondrial membrane potential (ΔΨm), 20 nM of TMRE (tetramethylrhodamine ethyl ester) as a fluorescent indicator was continuously applied to be loaded on cells. In order to monitor mitochondrial Ca^2+, cells on glass coverslips were loaded with 10 μM Rhod-2 AM via cold loading/warm incubation. In order to monitor cytosolic Ca^2+, cells were co-loaded with 10 μM Fluo-4 AM at 37′C for 30 min. The cells were washed twice with a KB solution, and mounted in a perfusion chamber. Fluorescent imaging was taken using a confocal laser scanning microscope (LSM-510 META, Carl Zeiss) at a magnification of ×200 and ×400, in conjunction with appropriate laser lines and a filter set. Image analysis was carried out using LSM-510 META software (Zeiss). Images for TMRE (red fluorescence), Rhod-2 (red fluorescence) and Fluo-4 (green fluorescence) were obtained using an inverted Zeiss 510META laser-scanning confocal microscope equipped with ×63 numerical aperture, 1.4 oil-immersion planapochromat lens. Green fluorescence and red fluorescence were illuminated with light of 488 nm and 543 nm. Incident light was passed through a 545 nm dichroic mirror and observed via a 500 to 530 nm band-pass (green) filter and a 560 nm long-pass (red) barrier filter.
However, such effects were not observed in HEK293 cells. […]

[1] = beta-oxidation assay: 14C-palmitic acid incorporated into liver triglyceride; format: in vivo, mouse; details: DIO mice fed 50 mg/kg for 7 days; liver removed 10 min after 14C-palmitic acid IV
Description: The injection solution prepared in Section 1 was injected into tail veins of DIO mice at a dose of 10 microCi/150 μl/head, and the liver was removed 10 min later.
The removed liver was immediately and rapidly frozen in liquid nitrogen and weighed. A 5-fold weight of a 5 mM Tris-HCl buffer solution containing 0.25 M sucrose, 5 mM MgCl2, 1 mM mercaptoethanol and 0.5 mM EDTA was added to the liver tissues which were then homogenized. Equal amounts of each sample was taken and transferred to fresh 15 mL containers to which a 2.5-fold amount of C/M solution (chloroform:MetOH=2:1) was added, respectively. The mixtures were thoroughly mixed using a homogenizer for 2 min, centrifuged at 2500 rpm for 20 min to separate chloroform layers that were then transferred to fresh containers. The remaining materials were thoroughly mixed with 2-fold amounts of the C/M solution for 2 min, and centrifuged to separate chloroform layers. […] Then, more than 10-fold volumes of a toluene cocktail solution were added to chloroform layers of the vials and the mixtures were thoroughly mixed using a stirrer, and radioactivity was measured using a scintillation counter.
10 μCi of 14C-palmitic acid was IV-injected to a tail vein of mice and 10 min later the liver was removed and homogenized Fat was extracted from the homogenizate, and radioactivity was measured by a liquid scintillation counter.

AMPK = AMPK phosphorylation in HEK293 cells (Western blot); format: cell-based, human; details: 10 μM, 30 min
Description: Cells were lysed in SDS sample buffer (62.5 mM Tris HCl (pH 6.8), 6% (w/v) SDS, 30% glycerol, 125 mM DTT, and 0.03% (w/v) bromophenol blue). The total cell lysates were boiled at a temperature of 100° C. for 5 min and electrophoresed on a sodium dodecyl sulfate-polyacrylamide gel, and proteins were transferred on a nitrocellulose membrane. The membrane was reacted in TBS (5% (w/v) milk and 0.1% Tween 20) for 1 hour, and then reacted with primary antibodies for 2 hours. Next, the membrane was developed using HRP-conjugated secondary antibodies (Phototope-HRP Western Blot Detection Kit, New England Biolabs, Beverly, Mass.).
In order to investigate the importance of an NQO1 protein in phosphorylation of AMP kinase, HepG2, MCF-7 and HEK293 cells were seeded onto 60 mm plates at a density of 1×10^6 cells/plate. After growing the cells for 24 hours, the culture medium was replaced with a serum-free medium, and cells were treated with pyrano-1,2-naphthoquinone (10 μM) for 30 min, respectively, in combination with a control group (DMSO). Cells were lysed in RIPA buffer and amounts of all proteins were quantified using a spectrophotometer, and 50 μg of the protein was subjected to electrophoresis. AMP kinase phosphorylation was examined using Anti-AMPK and Anti-pT172-AMPK, whereas the NQO1 protein was assayed using Anti-NQO1. From the fact that AMP kinase phosphorylation by pyran-1,2-naphthoquinone (10 μM) was not observed in HEK293 cells, it can be seen that the NQO1 protein is crucial for phosphorylation of AMP kinase.
In order to examine that an activity of NQO1 is important for the phosphorylation of AMP kinase, HEK293 cells were seeded onto a 6-well plate at a density of 1×10^5 cells/well, cultured for 24 hours, and transfected with pSG5-HA-NQO1 (500 ng) and pSG5-HA-NOQ1-C609T (500 ng) plasmids. After 24 hours, the culture medium was replaced with a serum-free medium, and the cells were treated with pyrano-1,2-naphthoquinone (10 μM) and AICAR (2 mM) for 30 min, in combination with a control (DMSO). AMP kinase phosphorylation were assayed using Anti-AMPK and Anti-pT172-AMPK, whereas transfected NQO1 was assayed using Anti-HA.
In addition, AMPK phosphorylation/activation was not promoted in HEK293 cells, except for HEK293 cells transfected with wild type NQO1.

HEK293 cells = assay: calcium influx in NQO1-deficient HEK293 cells; format: cell-based, human
Description: Cells were grown on a coverslip in a culture medium for 24 hours, maintained in an RPMI 1640 serum-free medium for 1 hour, and pretreated with a calcium indicator Fluo-4 (5 μM) for 30 min. After pretreatment, the coverslip was mounted on a slide glass. […] Using an LSM Image Browser program (Carl Zeiss), 300 images taken for 10 min every 2 seconds were sorted and ordered in a time sequence and plotted on a graph.

cardiomyocytes = assay: intracellular NAD(P)H fluorescence in cardiomyocytes; format: cell-based
Description: HepG2 (human hepatoma cell line), HEK293 (Human embryonic kidney cell line), and C2C12/L6 myoblasts were purchased from American Type Culture Collection (ATCC, Manassas, Va., USA). LKB-/- MEFs were purchased from R.A. DePinho. Rat ventricular myocytes were enzymatically isolated from the heart of adult […] by a known method. Phosphorylation of AMPK ([…]) and ACC ([…]) was measured by Western blot analysis using Cell Signaling Technologies and pan- and phospho-specific antibodies (Upstate Biotechnology, Inc., Lake Placid, N.Y.). In order to monitor monochromatic fluorescence (350 nm), light was illuminated using a 75 W xenon arc lamp directed via a 10 Hz chopper wheel; specific fluorescence intensity was measured at a wavelength of 405±15 nm and 460±10 nm. Even though autofluorescence at 460 nm may occur from unknown intracellular components or cytosolic NAD(P)H, most of the light detected by the method of the present invention was generated from mitochondrial NAD(P)H. Specifically, the NQO1 activity and changes in the intracellular NAD(P)H fluorescence concentration in the presence/absence of NQO1 activity were measured in HepG2, HEK293 and pSG5 HA-NQO1 or pSG5 HA NQO1 […]-inserted HEK293 cells.

Compound: CC1(C)CCC2=C(O1)c1ccccc1C(=O)C2=O [βL, 2,2-Dimethyl-3,4-dihydro-2H-benzo[h]chromene-5,6-dione]
- decrease of TMRE fluorescence (HepG2 cells): about 20%
- amount of 14C-palmitic acid incorporated into hepatic triglyceride (TG), lower than vehicle-treated mice [1]: about 45%
- AMP kinase phosphorylation (AMPK; HEK293 cells (no NQO1)): not promoted
- AMP kinase phosphorylation (AMPK; HEK293 cells (no NQO1), listed as pyran-1,2-naphthoquinone): not observed
- AMP kinase phosphorylation (AMPK; HEK293 transfected with NQO1-C609T having no NQO1 activity): no phosphorylation of AMP kinase
- calcium peak (HEK293 cells): not appeared
- decrease of NAD(P)H (cardiomyocytes): about 40%
